Assay results from the CheMixHub viscosity set.

Assay: xn = mol fraction of the nth substance listed

OCCCl + CCCOC(C)=O
viscosity [mPa·s], 101.33 kPa
Conditions	x1 = 0.1017	x1 = 0.2031	x1 = 0.3017	x1 = 0.4061	x1 = 0.5057	x1 = 0.5974	x1 = 0.7006	x1 = 0.7963	x1 = 0.9006
298.15 K	0.593	0.658	0.736	0.852	0.989	1.155	1.43	1.805	2.302
303.15 K	0.557	0.614	0.687	0.792	0.908	1.057	1.293	1.615	2.035
308.15 K	0.525	0.58	0.642	0.733	0.856	0.97	1.177	1.473	1.81

CCCC(O)CC (configuration not stated) + CCO
298.15 K, 101.33 kPa
Conditions	viscosity [mPa·s]
x2 = 0.1028	4.236
x2 = 0.2116	3.975
x2 = 0.3124	3.658
x2 = 0.4135	3.218
x2 = 0.5018	2.88
x2 = 0.6027	2.459
x2 = 0.6987	2.054
x2 = 0.7994	1.673
x2 = 0.9044	1.363

CN1CCC[C@H]1c1cccnc1 + CCO
viscosity [mPa·s], 101.33 kPa
Conditions	298.15 K	323.15 K
x1 = 0.0501	1.468	0.8557
x1 = 0.1104	1.756	1.03
x1 = 0.1524	1.941	1.123
x1 = 0.2923	2.477	1.376
x1 = 0.3425	2.652	1.482
x1 = 0.4474	3.004	1.703
x1 = 0.4676	3.008	1.764
x1 = 0.5898	3.224	1.784
x1 = 0.6839	3.497	1.88
x1 = 0.7725	3.564	1.961
x1 = 0.8957	3.801	2.026
x1 = 0.8976	3.803	2.026

COCC(C)OCC(C)O (configuration not stated) + CCO
viscosity [mPa·s], 101.33 kPa
Conditions	298.15 K	308.15 K	318.15 K
x1 = 0.05	1.237	1.014	0.84
x1 = 0.1	1.385	1.119	0.92
x1 = 0.1501	1.525	1.218	0.996
x1 = 0.2	1.661	1.32	1.073
x1 = 0.2501	1.803	1.421	1.148
x1 = 0.3	1.941	1.521	1.225
x1 = 0.35	2.081	1.623	1.301
x1 = 0.4001	2.216	1.723	1.379
x1 = 0.45	2.35	1.82	1.451
x1 = 0.5	2.485	1.916	1.525
x1 = 0.5497	2.616	2.006	1.594
x1 = 0.6	2.744	2.099	1.662
x1 = 0.6497	2.871	2.192	1.726
x1 = 0.7001	3.001	2.281	1.796
x1 = 0.75	3.125	2.365	1.857
x1 = 0.8001	3.241	2.449	1.922
x1 = 0.8497	3.359	2.531	1.979
x1 = 0.8996	3.472	2.61	2.036
x1 = 0.9498	3.579	2.686	2.09

OCCCl + CCO
viscosity [mPa·s], 101.33 kPa
Conditions	x1 = 0.0955	x1 = 0.2589	x1 = 0.2902	x1 = 0.3931	x1 = 0.4925	x1 = 0.5932	x1 = 0.6938	x1 = 0.7947	x1 = 0.8984
298.15 K	1.086	1.262	1.302	1.45	1.61	1.798	2.001	2.222	2.538
303.15 K	0.987	1.14	1.174	1.306	1.447	1.601	1.772	1.958	2.197
308.15 K	0.897	1.034	1.065	1.179	1.297	1.432	1.579	1.735	1.932

OCCCl + CCOC(C)=O
viscosity [mPa·s], 101.33 kPa
Conditions	x1 = 0.1033	x1 = 0.2006	x1 = 0.3231	x1 = 0.4048	x1 = 0.5015	x1 = 0.6007	x1 = 0.7022	x1 = 0.8	x1 = 0.9
298.15 K	0.485	0.542	0.643	0.729	0.864	1.065	1.326	1.689	2.242
303.15 K	0.454	0.51	0.601	0.679	0.8	0.967	1.2	1.517	1.98
308.15 K	0.43	0.482	0.565	0.635	0.746	0.894	1.098	1.369	1.776

NC=O + CN(C)C=O
298.15 K, 101.3 kPa
Conditions	viscosity [mPa·s]
x1 = 0.1	1.041
x1 = 0.2	1.27
x1 = 0.3	1.472
x1 = 0.4	1.698
x1 = 0.5	1.939
x1 = 0.6	2.198
x1 = 0.7	2.483
x1 = 0.8	2.817
x1 = 0.9	3.191

OCCCO + CN(C)C=O
308.15 K, 101 kPa
Conditions	viscosity [mPa·s]
x1 = 0.0229	0.76
x1 = 0.0468	0.834
x1 = 0.0914	0.904
x1 = 0.2048	1.267
x1 = 0.3032	1.748
x1 = 0.397	2.4
x1 = 0.4994	3.516
x1 = 0.597	5.056
x1 = 0.699	7.606
x1 = 0.7983	11.93
x1 = 0.9001	17.75
x1 = 0.9477	20.44

CCCC(O)CC (configuration not stated) + CO
298.15 K, 101.33 kPa
Conditions	viscosity [mPa·s]
x2 = 0.1014	4.298
x2 = 0.2029	3.945
x2 = 0.3111	3.363
x2 = 0.4188	2.737
x2 = 0.503	2.278
x2 = 0.6078	1.758
x2 = 0.7072	1.383
x2 = 0.7994	1.054
x2 = 0.9014	0.7655

OCCCl + CO
viscosity [mPa·s], 101.33 kPa
Conditions	x1 = 0.096	x1 = 0.2122	x1 = 0.2939	x1 = 0.3927	x1 = 0.4944	x1 = 0.598	x1 = 0.6969	x1 = 0.7977	x1 = 0.8997
298.15 K	0.615	0.777	0.91	1.099	1.321	1.591	1.869	2.13	2.45
303.15 K	0.572	0.721	0.834	1.003	1.195	1.434	1.632	1.884	2.14
308.15 K	0.529	0.662	0.767	0.913	1.084	1.287	1.456	1.675	1.89

OCCCl + COC(C)=O
viscosity [mPa·s], 101.33 kPa
Conditions	x1 = 0.1021	x1 = 0.2013	x1 = 0.3049	x1 = 0.4029	x1 = 0.5056	x1 = 0.6047	x1 = 0.7046	x1 = 0.7987	x1 = 0.9014
298.15 K	0.438	0.501	0.587	0.691	0.844	1.039	1.324	1.688	2.234
303.15 K	0.414	0.472	0.555	0.645	0.787	0.954	1.197	1.518	1.978
308.15 K	0.392	0.447	0.519	0.606	0.726	0.881	1.094	1.369	1.762

NC=O + COCCO
101 kPa
Conditions	viscosity [mPa·s]
303 K, x1 = 0.1585	1.679
303 K, x1 = 0.4194	2.286
303 K, x1 = 0.5295	2.443
303 K, x1 = 0.6283	2.625
303 K, x1 = 0.717	2.859
303 K, x1 = 0.8711	2.837
303 K, x1 = 0.9381	2.945
303.15 K, x1 = 0.1785	1.795
313 K, x1 = 0.2971	1.632
313 K, x1 = 0.4194	1.841
313 K, x1 = 0.5295	1.958
313 K, x1 = 0.6283	2.067
313 K, x1 = 0.717	2.223
313 K, x1 = 0.7978	2.339
313 K, x1 = 0.8711	2.226
318.15 K, x1 = 0.5726	1.885

O[C@@H]1CO[C@H]2[C@@H]1OC[C@@H]2O + C[N+](C)(C)CC(=O)[O-]
Conditions	viscosity [mPa·s]
298.15 K, 101.33 kPa, x1 = 0.7	513.3

OCCCO + C[N+](C)(C)CCO.[Cl-]
viscosity [mPa·s], 101.3 kPa
Conditions	293.15 K	298.15 K	298.2 K	303.15 K	308.15 K	308.2 K	313.15 K	318.15 K	318.2 K	323.15 K
x1 = 0.7509	69.74	55.76	–	45.4	37.43	–	31.35	26.52	–	22.62
x1 = 0.8001	61.31	49.49	–	40.7	33.88	–	27.31	23.03	–	19.63
x1 = 0.8328	57.14	46.14	–	37.62	30.92	–	25.67	21.53	–	18.26
x1 = 0.8567	53.95	42.83	–	34.73	28.58	–	24.01	20.38	–	17.26
x2 = 0.1667	–	–	49.5	–	–	36.9	–	–	27.6	–
x2 = 0.2	–	–	–	34.45	28.87	–	24.21	20.52	–	17.57
x2 = 0.25	–	–	–	40.05	33.17	–	27.84	23.62	–	20.25

CCN(CC)CC(=O)Nc1c(C)cccc1C + Cc1ccc(C(C)C)c(O)c1
100 kPa, x2 = 0.5
Conditions	viscosity [mPa·s]
293.15 K	177.3
298.15 K	111.3
303.15 K	73.71
308.15 K	51.05
313.15 K	36.76
318.15 K	27.36
323.15 K	20.98

Cc1cccc(C(C)C)c1 + Cc1ccc(C(C)C)cc1
101 kPa, x2 = 0.4
Conditions	viscosity [mPa·s]
293.15 K	0.8
313.15 K	0.72

CC(C)C#N + Cc1ccc(C)cc1
viscosity [mPa·s], 101 kPa
Conditions	x2 = 0.1003	x2 = 0.2009	x2 = 0.3014	x2 = 0.4041	x2 = 0.4978	x2 = 0.6013	x2 = 0.7001	x2 = 0.8003	x2 = 0.8998
303.15 K	0.474	0.482	0.484	0.498	0.505	0.519	0.531	0.55	0.558
308.15 K	0.444	0.453	0.453	0.461	0.473	0.485	0.495	0.507	0.519

CC(C)C#N + Cc1ccccc1
viscosity [mPa·s], 101 kPa
Conditions	x2 = 0.1025	x2 = 0.2009	x2 = 0.2987	x2 = 0.4001	x2 = 0.4983	x2 = 0.6008	x2 = 0.6993	x2 = 0.801	x2 = 0.8983
303.15 K	0.463	0.465	0.468	0.474	0.481	0.49	0.499	0.509	0.517
308.15 K	0.434	0.437	0.439	0.445	0.45	0.46	0.468	0.478	0.486

OCCCl + Cc1ccccc1N
viscosity [mPa·s], 100 kPa
Conditions	x2 = 0.1141	x2 = 0.2148	x2 = 0.3201	x2 = 0.4123	x2 = 0.5121	x2 = 0.6225	x2 = 0.7112	x2 = 0.8184	x2 = 0.9017
303.15 K	2.67	2.744	2.82	2.884	2.953	3.026	3.084	3.151	3.202
308.15 K	2.312	2.378	2.445	2.502	2.562	2.626	2.676	2.734	2.777
313.15 K	1.963	2.031	2.099	2.157	2.219	2.285	2.337	2.396	2.44
318.15 K	1.645	1.711	1.777	1.834	1.893	1.958	2.008	2.067	2.108

CN1CCC[C@H]1c1cccnc1 + ClC(Cl)C(Cl)Cl
viscosity [mPa·s], 101.33 kPa
Conditions	x1 = 0.1547	x1 = 0.2569	x1 = 0.3706	x1 = 0.5146	x1 = 0.5995	x1 = 0.6384	x1 = 0.6803	x1 = 0.7501	x1 = 0.868
298.15 K	2.625	3.353	4.121	4.912	5.253	5.353	5.203	5.031	4.545
323.15 K	1.541	1.905	2.184	2.425	2.53	2.632	2.568	2.497	2.342
